Data on eleven molecules can be found in ChEMBL document CHEMBL2073817 (J Pharmacol Exp Ther, 2002).

The target in data set [1] is T1, OAT4 (Solute carrier family 22 member 11) (Homo sapiens, UniProt Q9NSA0).
T1 sequence (Q9NSA0 whole entry): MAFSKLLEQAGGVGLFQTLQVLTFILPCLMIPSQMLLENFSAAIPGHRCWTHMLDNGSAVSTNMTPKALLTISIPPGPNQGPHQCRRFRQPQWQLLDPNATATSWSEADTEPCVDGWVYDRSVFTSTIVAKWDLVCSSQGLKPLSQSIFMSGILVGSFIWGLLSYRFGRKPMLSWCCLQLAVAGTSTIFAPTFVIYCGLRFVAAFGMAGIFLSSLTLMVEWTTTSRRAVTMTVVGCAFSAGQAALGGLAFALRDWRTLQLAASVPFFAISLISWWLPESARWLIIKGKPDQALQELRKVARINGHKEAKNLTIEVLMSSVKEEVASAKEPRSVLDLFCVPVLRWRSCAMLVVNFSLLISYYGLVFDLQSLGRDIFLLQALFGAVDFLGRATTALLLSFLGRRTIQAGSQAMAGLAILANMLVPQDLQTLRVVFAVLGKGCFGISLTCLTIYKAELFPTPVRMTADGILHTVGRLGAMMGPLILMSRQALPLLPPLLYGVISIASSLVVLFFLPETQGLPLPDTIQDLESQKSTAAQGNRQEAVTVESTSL
Briefly: TP_TRANSPORTER: inhibition of MTX uptake (MTX: 1 uM, Ibuprofen: 1000 uM) in OAT4-expressing S2 cells. Type of data set: functional, cell-based. Details: scale not given: the % may be the effect or the level left. The conditions noted are these: probe MTX, read-out: Activity.

Data set [2] addresses T1, OAT4 (Solute carrier family 22 member 11). Briefly: TP_TRANSPORTER: inhibition of MTX uptake (MTX: 1 uM, Indomethacin: 500 uM) in OAT4-expressing S2 cells. The format is functional, cell-based. The note with it: probe MTX, read-out: Activity. Also on record: scale not given: the % may be the effect or the level left.
The target in data set [3] is T2, OAT1 (Solute carrier family 22 member 6) (Homo sapiens, UniProt Q4U2R8).
T2 sequence (Q4U2R8 whole entry): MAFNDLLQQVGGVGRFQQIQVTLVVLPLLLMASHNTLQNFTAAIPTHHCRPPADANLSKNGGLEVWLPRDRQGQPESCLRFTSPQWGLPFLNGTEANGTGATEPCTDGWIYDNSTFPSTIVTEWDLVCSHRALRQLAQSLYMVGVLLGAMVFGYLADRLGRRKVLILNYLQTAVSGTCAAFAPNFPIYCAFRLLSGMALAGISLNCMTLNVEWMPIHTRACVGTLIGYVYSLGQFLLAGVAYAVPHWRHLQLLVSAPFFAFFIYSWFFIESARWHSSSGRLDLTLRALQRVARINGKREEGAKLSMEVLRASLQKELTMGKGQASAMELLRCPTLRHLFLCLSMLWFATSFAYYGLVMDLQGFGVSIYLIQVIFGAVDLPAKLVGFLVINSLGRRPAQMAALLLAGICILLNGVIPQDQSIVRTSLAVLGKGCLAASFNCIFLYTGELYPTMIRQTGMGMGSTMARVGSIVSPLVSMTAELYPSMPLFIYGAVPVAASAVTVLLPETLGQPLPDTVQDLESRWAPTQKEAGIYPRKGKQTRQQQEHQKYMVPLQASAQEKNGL
Description: TP_TRANSPORTER: inhibition of MTX uptake (MTX: 1 uM, Indomethacin: 500 uM) in OAT1-expressing S2 cells. The format is functional, cell-based. Also on record: scale not given: the % may be the effect or the level left. The note with it: mouse, probe MTX, read-out: Activity.

For data set [4], the target named is T3, Organic anion transporter 3 (Homo sapiens, UniProt Q8TCC7).
T3 sequence (Q8TCC7 whole entry): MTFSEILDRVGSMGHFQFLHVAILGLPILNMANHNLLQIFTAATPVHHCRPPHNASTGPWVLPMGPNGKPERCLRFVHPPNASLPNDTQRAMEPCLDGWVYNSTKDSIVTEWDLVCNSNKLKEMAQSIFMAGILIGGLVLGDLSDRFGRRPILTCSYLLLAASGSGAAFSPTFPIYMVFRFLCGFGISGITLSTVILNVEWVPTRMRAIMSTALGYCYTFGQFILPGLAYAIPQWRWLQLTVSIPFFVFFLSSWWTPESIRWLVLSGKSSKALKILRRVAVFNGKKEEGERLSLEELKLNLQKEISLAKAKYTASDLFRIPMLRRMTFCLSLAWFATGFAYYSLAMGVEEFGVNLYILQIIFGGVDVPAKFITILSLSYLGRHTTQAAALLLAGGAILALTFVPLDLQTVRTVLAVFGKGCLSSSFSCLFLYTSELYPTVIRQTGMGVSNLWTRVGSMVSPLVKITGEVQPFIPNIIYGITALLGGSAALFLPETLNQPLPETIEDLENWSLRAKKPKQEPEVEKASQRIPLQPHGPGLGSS
Briefly: TP_TRANSPORTER: inhibition of MTX uptake in OAT3-expressing S2 cells. The format is functional, cell-based.

Data set [5] deals with T1, OAT4 (Solute carrier family 22 member 11). Briefly: TP_TRANSPORTER: inhibition of MTX uptake (MTX: 1 uM, Ketoprofen: 1000 uM) in OAT4-expressing S2 cells. Type of data set: functional, cell-based. Also on record: scale not given: the % may be the effect or the level left. The conditions noted are these: mouse, probe MTX, read-out: Activity.
The target in data set [6] is T2, OAT1 (Solute carrier family 22 member 6). Briefly: TP_TRANSPORTER: inhibition of MTX uptake (MTX: 1 uM, Ketoprofen: 1000 uM) in OAT1-expressing S2 cells. Details: scale not given: the % may be the effect or the level left. The format is functional, cell-based. The note with it: probe MTX, read-out: Activity.
Data set [7] concerns the target T1, OAT4 (Solute carrier family 22 member 11). Briefly: TP_TRANSPORTER: inhibition of MTX uptake (MTX: 1 uM, PCG: 1000 uM) in OAT4-expressing S2 cells. The format is functional, cell-based. Also on record: scale not given: the % may be the effect or the level left. The conditions noted are these: mouse, probe MTX, read-out: Activity.
Data set [8] has the same target. Description: TP_TRANSPORTER: inhibition of MTX uptake (MTX: 1 uM, Phenylbutazone: 1000 uM) in OAT4-expressing S2 cells. Type of data set: functional, cell-based. The conditions noted are these: probe MTX, read-out: Activity. Details: scale not given: the % may be the effect or the level left.
Data set [9] has as its target T2, OAT1 (Solute carrier family 22 member 6). Description: TP_TRANSPORTER: inhibition of MTX uptake (MTX: 1 uM, Phenylbutazone: 1000 uM) in OAT1-expressing S2 cells. Details: scale not given: the % may be the effect or the level left. The note with it: probe MTX, read-out: Activity. The format is functional, cell-based.
In data set [10] the target is T1, OAT4 (Solute carrier family 22 member 11). Briefly: TP_TRANSPORTER: inhibition of MTX uptake (MTX: 1 uM, Piroxicam: 1000 uM) in OAT4-expressing S2 cells. Type of data set: functional, cell-based. Also on record: scale not given: the % may be the effect or the level left. The conditions noted are these: mouse, probe MTX, read-out: Activity.
The target is the same in data set [11]. Briefly: TP_TRANSPORTER: inhibition of MTX uptake (MTX: 1 uM, Probenecid: 1000 uM) in OAT4-expressing S2 cells. The format is functional, cell-based. Also on record: scale not given: the % may be the effect or the level left. The conditions noted are these: probe MTX, read-out: Activity.
Substrate in data set [12]: CN(Cc1cnc2nc(N)nc(N)c2n1)c1ccc(C(=O)N[C@@H](CCC(=O)O)C(=O)O)cc1
Description: TP_TRANSPORTER: uptake in OAT1-expressing S2 cells. The format is functional, cell-based.

Substrate in data set [13]: CN(Cc1cnc2nc(N)nc(N)c2n1)c1ccc(C(=O)N[C@@H](CCC(=O)O)C(=O)O)cc1
Briefly: cells, lysate or membranes named.

On to `CC(C)Cc1ccc(C(C)C(=O)O)cc1` (centres undefined) [IBUPROFEN], for which the activity at 1000 µM in data set [1] worked out at 67.8%.

On to `COc1ccc2c(c1)c(CC(=O)O)c(C)n2C(=O)c1ccc(Cl)cc1` [INDOMETHACIN], for which the activity at 500 µM in [2] came to 60.9%; in data set [3] it was 60.6%. For the same molecule, the Ki (as a rule, a measure of affinity in units of concentration, obtained from inhibition or displacement) in data set [4] came out at 5.95 µM.

In the case of `CC(C(=O)O)c1cccc(C(=O)c2ccccc2)c1` (centres undefined) [KETOPROFEN], the activity at 1000 µM in data set [5] came to 81%; in data set [6], 53.4%. The inhibition constant Ki in [4] worked out at 1160 µM.

As for `CC1(C)S[C@@H]2[C@H](NC(=O)Cc3ccccc3)C(=O)N2[C@H]1C(=O)O` [PENICILLIN G], the activity at 1000 µM in [7] stood at 79.7%. Affinity in data set [4] was put at a Ki of 97.6 µM.

Regarding `CCCCC1C(=O)N(c2ccccc2)N(c2ccccc2)C1=O` [PHENYLBUTAZONE], the activity at 1000 µM is 55.7% in data set [8] and 30% in [9]. Moreover, affinity in [4] was put at a Ki of 34.7 µM.

For the molecule `CN1C(C(=O)Nc2ccccn2)=C(O)c2ccccc2S1(=O)=O` [PIROXICAM], the activity at 1000 µM in data set [10] was determined as 62%. For the same molecule, the affinity in [4], expressed as Ki, was 1200 µM.

Turning to `CCCN(CCC)S(=O)(=O)c1ccc(C(=O)O)cc1` [PROBENECID], the activity at 1000 µM in data set [11] stood at 81.6%.

Take `O=C(O)c1ccccc1O` [SALICYLIC ACID]: the Ki in data set [4] came to 1020 µM.

B1: Solute carrier family 22 member 11 (Homo sapiens) (protein)
chain: T1 sequence (Q9NSA0 whole entry)
Consider B1, for which, in data set [12], the Km (usually the concentration of substrate that gives half-maximal velocity) amounted to 17.8 µM.

B2: Solute carrier family 22 member 6 (Homo sapiens) (protein)
chain: T2 sequence (Q4U2R8 whole entry)
On to B2, for which the Km in [13] worked out at 554 µM.

B3: Organic anion transporter 3 (Homo sapiens) (protein)
chain: T3 sequence (Q8TCC7 whole entry)
Consider B3, for which the Km in [12] is 21.1 µM.
